For orientation: inhibition means the relative decrease from the control value, in per cent.

Here are results for five molecules from paper PMC11951083, “Highly Specific Miniaturized Fluorescent Monoacylglycerol Lipase Probes Enable Translational Research” (Journal of the American Chemical Society, 2025).

For assay [1], the target named is beta1 (h) (Homo sapiens, UniProt P08588). The experiment in a line: beta1 (h) (agonist radioligand). The settings on record: read-out: Inhibition beta1 (h) (agonist radioligand).
Sequence of beta1 (h) (P08588 whole entry): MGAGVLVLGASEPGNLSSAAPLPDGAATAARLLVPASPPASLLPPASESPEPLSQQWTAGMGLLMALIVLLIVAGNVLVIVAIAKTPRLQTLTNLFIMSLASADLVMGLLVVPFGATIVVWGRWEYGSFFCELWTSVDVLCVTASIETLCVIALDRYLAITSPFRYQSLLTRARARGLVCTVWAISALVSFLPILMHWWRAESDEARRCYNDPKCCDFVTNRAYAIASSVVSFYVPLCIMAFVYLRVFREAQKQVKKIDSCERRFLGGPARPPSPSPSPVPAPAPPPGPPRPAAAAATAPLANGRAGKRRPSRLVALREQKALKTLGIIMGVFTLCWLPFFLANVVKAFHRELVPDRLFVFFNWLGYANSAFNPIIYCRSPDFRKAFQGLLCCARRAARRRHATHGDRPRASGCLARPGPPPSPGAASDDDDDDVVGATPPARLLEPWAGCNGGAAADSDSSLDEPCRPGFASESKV
For assay [2], the target named is acetylcholinesterase (h) (Homo sapiens, UniProt P22303). As to the kind of experiment: acetylcholinesterase (h). The settings on record: read-out: Inhibition acetylcholinesterase (h).
Sequence of acetylcholinesterase (h) (P22303 32-614): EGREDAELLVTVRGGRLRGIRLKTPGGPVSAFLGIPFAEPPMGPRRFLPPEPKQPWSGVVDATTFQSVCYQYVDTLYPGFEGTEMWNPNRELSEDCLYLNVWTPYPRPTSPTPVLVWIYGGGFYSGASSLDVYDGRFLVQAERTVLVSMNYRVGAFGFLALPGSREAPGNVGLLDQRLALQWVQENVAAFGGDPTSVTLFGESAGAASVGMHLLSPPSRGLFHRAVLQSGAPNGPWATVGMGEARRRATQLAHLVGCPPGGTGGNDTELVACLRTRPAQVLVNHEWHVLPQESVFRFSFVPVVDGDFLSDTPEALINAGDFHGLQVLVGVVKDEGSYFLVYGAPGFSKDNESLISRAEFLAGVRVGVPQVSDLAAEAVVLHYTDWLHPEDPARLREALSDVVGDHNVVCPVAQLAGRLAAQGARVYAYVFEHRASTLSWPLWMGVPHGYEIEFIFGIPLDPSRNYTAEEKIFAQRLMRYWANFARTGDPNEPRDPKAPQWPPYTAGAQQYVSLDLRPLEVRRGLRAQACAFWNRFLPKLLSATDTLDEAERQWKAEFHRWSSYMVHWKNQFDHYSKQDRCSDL
Assay [3] addresses T1, alpha2A (h) (Homo sapiens, UniProt P08913).
T1 sequence (P08913 1-465): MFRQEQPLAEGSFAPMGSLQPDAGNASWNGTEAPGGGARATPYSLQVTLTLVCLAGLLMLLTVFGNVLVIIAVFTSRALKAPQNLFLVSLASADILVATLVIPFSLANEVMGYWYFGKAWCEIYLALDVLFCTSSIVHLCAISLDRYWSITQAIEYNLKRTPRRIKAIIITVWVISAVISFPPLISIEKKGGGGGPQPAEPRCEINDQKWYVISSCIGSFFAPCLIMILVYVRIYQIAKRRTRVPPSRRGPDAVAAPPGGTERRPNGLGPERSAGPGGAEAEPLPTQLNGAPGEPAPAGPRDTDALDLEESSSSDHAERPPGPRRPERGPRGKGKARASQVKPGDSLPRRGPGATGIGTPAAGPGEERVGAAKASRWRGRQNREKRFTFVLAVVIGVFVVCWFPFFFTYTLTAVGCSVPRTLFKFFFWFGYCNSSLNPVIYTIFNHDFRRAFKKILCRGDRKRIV
The experiment in a line: alpha2A (h) (antagonist radioligand). As to conditions: read-out: Inhibition alpha2A (h) (antagonist radioligand).

Assay [4] deals with T2, alpha1A (h) (Homo sapiens, UniProt P35348).
T2 sequence (P35348 1-466): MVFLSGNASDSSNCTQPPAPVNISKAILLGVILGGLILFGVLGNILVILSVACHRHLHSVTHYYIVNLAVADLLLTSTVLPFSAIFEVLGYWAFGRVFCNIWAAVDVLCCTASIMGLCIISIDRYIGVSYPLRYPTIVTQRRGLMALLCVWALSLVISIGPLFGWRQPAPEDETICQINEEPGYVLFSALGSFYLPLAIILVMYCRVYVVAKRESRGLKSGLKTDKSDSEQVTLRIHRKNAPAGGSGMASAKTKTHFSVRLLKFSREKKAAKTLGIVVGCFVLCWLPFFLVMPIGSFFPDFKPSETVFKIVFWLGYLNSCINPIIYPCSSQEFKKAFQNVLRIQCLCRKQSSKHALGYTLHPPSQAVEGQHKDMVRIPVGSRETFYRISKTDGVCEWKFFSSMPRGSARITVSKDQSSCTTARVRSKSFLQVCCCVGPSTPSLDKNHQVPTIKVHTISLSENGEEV
As to the kind of experiment: alpha1A (h) (antagonist radioligand). As to conditions: read-out: Inhibition alpha1A (h) (antagonist radioligand).

For assay [5], the target named is T3, PPARgamma (h) (Homo sapiens, UniProt P37231).
T3 sequence (P37231 1-505): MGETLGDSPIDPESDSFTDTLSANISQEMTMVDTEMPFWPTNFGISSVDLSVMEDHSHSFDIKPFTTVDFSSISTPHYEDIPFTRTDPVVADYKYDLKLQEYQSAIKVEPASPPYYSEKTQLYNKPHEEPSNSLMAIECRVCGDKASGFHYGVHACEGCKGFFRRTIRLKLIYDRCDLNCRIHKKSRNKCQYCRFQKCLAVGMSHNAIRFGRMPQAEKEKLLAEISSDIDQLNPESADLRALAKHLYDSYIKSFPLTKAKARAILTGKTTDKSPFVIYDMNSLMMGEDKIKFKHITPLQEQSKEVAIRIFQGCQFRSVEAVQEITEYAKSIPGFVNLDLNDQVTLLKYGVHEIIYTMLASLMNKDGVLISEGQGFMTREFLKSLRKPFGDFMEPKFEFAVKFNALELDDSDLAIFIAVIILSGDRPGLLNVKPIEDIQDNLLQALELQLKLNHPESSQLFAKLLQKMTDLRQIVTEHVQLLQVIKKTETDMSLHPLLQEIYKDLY
As to the kind of experiment: PPARgamma (h) (agonist radioligand). As to conditions: read-out: Inhibition PPARgamma (h) (agonist radioligand).

Assay [6] has as its target kappa (h) (KOP) (Homo sapiens, UniProt P41145). As to the kind of experiment: kappa (h) (KOP) (agonist radioligand). The settings on record: read-out: Inhibition kappa (h) (KOP) (agonist radioligand).
Assay [7] deals with HIV-1 protease. As to the kind of experiment: HIV-1 protease. The settings on record: 10 µM.
Assay [8] deals with 5-HT2B (h) (Homo sapiens, UniProt P41595). As to the kind of experiment: 5-HT2B (h) (agonist radioligand). As to conditions: read-out: Inhibition 5-HT2B (h) (agonist radioligand).
Sequence of 5-HT2B (h) (P41595 whole entry): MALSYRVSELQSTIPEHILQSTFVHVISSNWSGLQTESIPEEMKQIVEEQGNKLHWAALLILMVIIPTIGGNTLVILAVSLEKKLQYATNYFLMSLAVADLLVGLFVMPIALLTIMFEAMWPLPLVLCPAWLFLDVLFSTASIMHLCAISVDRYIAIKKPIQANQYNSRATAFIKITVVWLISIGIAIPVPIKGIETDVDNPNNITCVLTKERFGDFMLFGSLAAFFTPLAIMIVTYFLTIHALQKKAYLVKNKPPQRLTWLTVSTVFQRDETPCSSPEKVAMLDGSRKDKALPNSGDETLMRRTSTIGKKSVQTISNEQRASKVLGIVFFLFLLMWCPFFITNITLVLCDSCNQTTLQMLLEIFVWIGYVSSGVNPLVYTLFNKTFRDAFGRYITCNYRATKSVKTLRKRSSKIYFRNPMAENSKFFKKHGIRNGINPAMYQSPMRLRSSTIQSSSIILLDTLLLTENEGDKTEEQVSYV
For assay [9], the target named is T4, 5-HT3 (h) (Homo sapiens, UniProt P46098).
T4 sequence (P46098 24-478): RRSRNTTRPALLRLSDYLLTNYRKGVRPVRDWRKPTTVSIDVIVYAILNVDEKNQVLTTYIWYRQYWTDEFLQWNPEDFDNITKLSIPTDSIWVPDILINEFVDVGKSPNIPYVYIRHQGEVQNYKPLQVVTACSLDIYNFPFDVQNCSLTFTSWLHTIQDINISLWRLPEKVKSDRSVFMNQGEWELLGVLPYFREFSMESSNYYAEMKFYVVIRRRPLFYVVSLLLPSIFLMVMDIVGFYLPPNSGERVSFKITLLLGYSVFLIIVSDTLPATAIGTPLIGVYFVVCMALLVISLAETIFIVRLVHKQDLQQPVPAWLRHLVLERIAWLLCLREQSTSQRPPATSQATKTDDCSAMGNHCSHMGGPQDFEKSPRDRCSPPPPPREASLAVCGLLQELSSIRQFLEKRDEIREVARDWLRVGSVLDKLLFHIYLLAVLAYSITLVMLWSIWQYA
The experiment in a line: 5-HT3 (h) (antagonist radioligand). The settings on record: read-out: Inhibition 5-HT3 (h) (antagonist radioligand).

Assay [10] deals with N muscle-type (h). As to the kind of experiment: N muscle-type (h) (antagonist radioligand). The settings on record: 10 µM.

Sequence of kappa (h) (KOP) (P41145 whole entry): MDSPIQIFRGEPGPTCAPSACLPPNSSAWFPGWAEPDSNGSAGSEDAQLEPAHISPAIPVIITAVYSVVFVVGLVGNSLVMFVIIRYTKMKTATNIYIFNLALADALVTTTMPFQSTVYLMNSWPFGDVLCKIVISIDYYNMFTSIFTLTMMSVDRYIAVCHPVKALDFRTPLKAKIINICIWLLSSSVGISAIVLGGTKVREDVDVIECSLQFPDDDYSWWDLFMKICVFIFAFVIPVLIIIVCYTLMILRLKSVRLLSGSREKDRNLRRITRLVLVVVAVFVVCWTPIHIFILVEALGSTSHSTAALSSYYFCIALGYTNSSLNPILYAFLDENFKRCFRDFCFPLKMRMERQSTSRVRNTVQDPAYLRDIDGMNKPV

`O=C(O[C@H](CO)C(F)(F)F)N1CC2(CC(CC3=C4C=CC=[N+]4[B-](F)(F)n4cccc43)C2)C1` [Compound 1]: the inhibition at 10 µM in assay [1] was -3.3%; in assay [2] it was -8.2%; in assay [3], 11.7%; in assay [4] it was 7.6%; in [5], 74.3%; in [6], 7.8%. Moreover, the inhibition at 10 µM in assay [8] amounted to 28.3%; in assay [9] it was 7.4%. In addition, the “Inhibition HIV-1 protease” value in [7] is on record as 10,30%. In assay [10], the “Inhibition N muscle-type (h) (antagonist radioligand)” value (“Inhibition N muscle-type (h)” below) is on record as -11,30%.
For `O=C(N1CC2(CC(CC3=C4C=CC=[N+]4[B-](F)(F)n4cccc43)C2)C1)N1CC2(CC(n3cnc(C4CC4)n3)C2)C1` [Compound 5], the inhibition at 10 µM in [1] was 0.6%; in assay [2], -14.4%; in assay [3], -8.9%; in assay [4] it was 2.1%; in assay [5], 5.6%; in assay [6], 10.3%. The inhibition at 10 µM in assay [8] turned out to be 0.1%; in [9] it was 1.4%. The “Inhibition HIV-1 protease” value in [7] was 5,20%. Besides, the “Inhibition N muscle-type (h)” value in assay [10] was 17,00%.
Consider `O=C1CO[C@H]2CCN(C(=O)N3CC4(CC(CC5=C6C=CC(c7ccc[nH]7)=[N+]6[B-](F)(F)n6cccc65)C4)C3)C[C@H]2N1` [Compound 4a], for which the inhibition at 10 µM in assay [1] is -1.2%; in assay [2] it was 1.8%; in assay [3] it was 7.4%; in assay [4] it was 45.5%; in assay [5], 20%; in assay [6], 22.7%. In addition, the inhibition at 10 µM in assay [8] is 30.3%; in assay [9] it was 1.1%. Moreover, the “Inhibition HIV-1 protease” value in [7] is 23,80%. The “Inhibition N muscle-type (h)” value in assay [10] was -1,70%.
Turning to `O=C(OC(C(F)(F)F)C(F)(F)F)N1CC2(CC(CC3=C4C=CC(c5ccc[nH]5)=[N+]4[B-](F)(F)n4cccc43)C2)C1` [Compound 2a], the inhibition at 10 µM in assay [1] was -3.3%; in assay [2], 2.5%; in assay [3], -0.9%; in assay [4], -3.4%; in assay [5] it was 20%; in assay [6] it was 4.9%. Moreover, the inhibition at 10 µM is 20.8% in assay [8] and 4.7% in assay [9]. Besides, the “Inhibition HIV-1 protease” value in [7] was 8,30%. Besides, the “Inhibition N muscle-type (h)” value in assay [10] is reported as -9,40%.
As to `O=C(OC(C(F)(F)F)C(F)(F)F)N1CC2(CC(CC3=C4C=CC=[N+]4[B-](F)(F)n4cccc43)C2)C1` [Compound 2], the inhibition at 10 µM was -1.7% in assay [1]; -2.9% in [2]; -2.2% in assay [3]; -4.6% in [4]; 56.3% in assay [5]; 5.9% in assay [6]. Besides, the inhibition at 10 µM was 4.1% in assay [8] and -5.6% in assay [9]. The “Inhibition HIV-1 protease” value in assay [7] is listed as -1,90%. In addition, the “Inhibition N muscle-type (h)” value in assay [10] is given as -0,30%.
